Here are results for two compounds from article PMC6072853 (Frontiers in Pharmacology, 2018).

Test [1] relates to HeLa cells. Put plainly: Flow cytometric analysis of cell cycle. The class given is cell-based, human. The procedure:
The distribution of cells in different cell cycle phases (subG1, G1, S and G2/M) was analyzed via the measurement of cellular DNA content by flow cytometry. HeLa cells were seeded onto 6-well plates and allowed to stand for an overnight. The cells were treated with the selected compounds for 24, 48, or 72 h. Then cells were harvested, washed and fixed in ice cold 70% ethanol and stored at −20°C at least for an hour. Next, a DNA staining solution (containing distilled water, propidium-iodide, Triton-X100, sodium citrate, and ribonuclease-A) was added to each sample and stored in the dark at room temperature for an hour. Stained cells were analyzed by flow cytometry (Partec CyFlow, Partec GmbH, Munster, Germany) with at least 20,000 cells being evaluated for each analysis. Data processing was performed using the ModFit LT 3.3.11 software (Verity Software House, Topsham, ME, United States).
(A flow cytometer gives signals particle by particle.)

The test system of test [2] is HeLa. Put plainly: MTT antiproliferative assay, HeLa. The class given is cell-based, human. Conditions: Homo sapiens, 72 h; for inhibition at 10 µM / inhibition at 30 µM: read-out: Growth inhibition (%) ± SEM; for IC50: read-out: calculated IC50 value. An excerpt:
(§1) Gynecological cancer cell lines, including ovarian (A2780), cervical (HeLa), and breast cancer cell lines (MCF7, T47D, MDA-MB-231, and MDA-MB-361) were purchased from the European Collection of Authenticated Cell Cultures (ECACC, Salisbury, United Kingdom). Additional cervical cell lines (SiHa and C33A) and a non-cancerous immortalized, mammary gland epithelial cell line (hTERT-HME1) were purchased from LGC Standards GmbH (Wesel, Germany). Non-cancerous fibroblast cells (MRC-5) were also obtained from the ECACC. All cells were cultured in minimal essential medium supplemented with 10% fetal bovine serum, 1% non-essential amino acids, and 1% antibiotic-antimycotic mixture, in humidified air containing 5% CO2 at 37°C. Immortalized hTERT-HME1 cells were maintained in serum-free mammary epithelial cell growth medium (MEGM) supplemented with insulin, human epidermal growth factor (hEGF), hydrocortisone, bovine pituitary extract, and an antibiotic-antimycotic mixture. All the medium and supplements were purchased from Lonza Group Ltd. (Basel, Switzerland).
(§2) The antiproliferative properties of the compounds were assessed by an MTT assay ([Mosmann, 1983]). Cells were seeded onto 96-well microplates at a density of 10,000 cells/well (MDA-MB-361 and C33A) or 5,000 cells/well (all other cell lines). After an overnight incubation, fresh medium containing the test compounds (at a concentration of 10 or 30 μM) was added. After incubation for 72 h at 37°C in humidified air, [3-(4,5-dimethylthiazol-2-yl)-2,5-diphenyltetrazolium bromide] (MTT) solution (5 mg/mL) was added. Purple formazan crystals were formed by the living cells during a 4 h contact period, which were assayed by spectrophotometry after having been dissolved in 100 μL DMSO. Untreated cells served as control, and cisplatin (CIS) (Ebewe Pharma GmbH, Unterach, Austria) was used as a reference compound. […] Two independent measurements were performed with five parallel wells. To present preliminary data concerning tumor selectivity of the potent compounds, the procedure was repeated on MRC-5 fibroblast and hTERT-HME1 immortalized mammary gland epithelial cells under the same experimental conditions.

The test system of test [3] is tubulin. The test can be described thus: Tubulin polymerization assay (cell-free). As to conditions: cell-free system, compared to untreated control. In kind it is biochemical. The procedure:
In order to determine the direct action of the test compounds on the microtubular system, an in vitro tubulin polymerization assay was performed using a commercially available kit (Cytoskeleton Inc., Denver, CO, United States) in accordance with the provider’s instructions. The assay reactions were performed on a pre-warmed (37°C), UV-transparent 96-well microplate. Ten microliters of the test solutions were placed on the wells supplemented with 2 mM MgCl2, 0.5 mM ethylene glycol tetraacetic acid (EGTA), 1 mM guanosine triphosphate (GTP) and 10.2% glycerol. Ten microliters of general tubulin buffer was used as untreated control, and paclitaxel (PAC) served as the reference compound. The polymerization reaction was initiated by adding 100 μL of 3.0 mg/mL tubulin in 80 mM PIPES, pH 6.9, to each sample. Absorbance of the samples was measured per minute, at 340 nm, using a 60-min kinetic measurement protocol. Each sample was prepared in two parallels. To characterize the process, polymerization curves were fitted to the measured data. The highest difference between the absorbances measured at two consecutive time points was regarded as Vmax (Δabsorbance/min) for the tested compound. A clinically applied reference agent, PAC was used at a relatively high concentration (10 μM) as recommended by the manufacturer. […]. […]

Test [4] concerns HeLa cells. The test can be described thus: Lactate dehydrogenase (LDH) cytotoxicity assay. The class given is cell-based, human. Conditions: 24 h. The procedure: The direct cytotoxic effects of the test agents were determined by a lactate dehydrogenase (LDH) assay. Cells were seeded onto 96-well microplates at a density of 5,000 cells/well and were incubated overnight, after which the medium containing the test compounds at proper concentrations was added. After incubation for 24 h, the activity of LDH released by the treated cells was determined by a commercially available colorimetric kit according to the manufacturer’s instructions (Hoffmann-La Roche Ltd., Basel, Switzerland). Untreated cells served as control, while detergent Triton X-100 and CIS were used as reference agents.

In test [5] the test system is A2780. The test can be described thus: MTT antiproliferative assay, A2780. In kind it is cell-based, human. As to conditions: Homo sapiens, 72 h, read-out: Growth inhibition (%) ± SEM; for inhibition at 10 µM: A2780, 10 μM; for inhibition at 30 µM: A2780, 30 μM.
From the text: as §1, §2
(In general: Tetrazolium assays rely on reduction of a dye to a coloured formazan, in cell work by metabolically active cells.)

The subject of test [6] is MRC-5. Put plainly: MTT assay, non-cancerous fibroblasts MRC-5. Conditions: Homo sapiens, MRC5, 72 h, read-out: Growth inhibition (%) ± SEM; for inhibition at 10 µM: MRC-5, 10 μM; for inhibition at 30 µM: MRC-5, 30 μM. In kind it is cell-based, human.
From the text: as §1, §2

The test system of test [7] is MCF-7. The test can be described thus: MTT antiproliferative assay, MCF-7. The class given is cell-based, human. As to conditions: Homo sapiens, MCF7, 72 h, read-out: Growth inhibition (%) ± SEM; for inhibition at 10 µM: MCF-7, 10 μM; for inhibition at 30 µM: MCF-7, 30 μM.
From the text: as §1, §2

Test [8] has as its system MDA-MB-361. Put plainly: MTT antiproliferative assay, MDA-MB-361. The class given is cell-based, human. Conditions: Homo sapiens, 72 h, read-out: Growth inhibition (%) ± SEM; for inhibition at 10 µM: MDA-MB-361, 10 μM; for inhibition at 30 µM: MDA-MB-361, 30 μM.
From the text: as §1, §2

The subject of test [9] is SiHa. The test can be described thus: MTT antiproliferative assay, SiHa. The class given is cell-based, human. Conditions: Homo sapiens, 72 h, read-out: Growth inhibition (%) ± SEM.
From the text: as §1, §2

Regarding `C[C@]12CC[C@H]3[C@@H](CCC4=CC(=O)CC[C@@H]43)[C@@H]1CC[C@@H]2O` [Compound 1, 19-nortestosterone, reference compound], the “effect on cell cycle phase distribution” value is “significant decrease in the G1 and a moderate but significant increase in the G2/M phase cell population” in test [1] (24 h); “these changes became more pronounced” in test [1] (48 h); “concentration-dependent accumulation of hypodiploid cells” in test [1] (72 h). For the same compound, the inhibition at 10 µM in [2] was 99.5 ± 0.2%; in [5], under 20%; in test [6], 5.4 ± 1.2%; in test [7], under 20%; in [8], under 20%; in [9], under 20%. For the same compound, the inhibition at 30 µM in [2] is 99.5 ± 0.3%; in test [5] it was under 20%; in test [6], 11.3 ± 0.5%; in test [7], under 20%; in test [8], under 20%; in test [9], 20.7 ± 2.6%. The IC50 in [2] is 650 nM. For the same compound, the “effect on tubulin polymerization” value in [3] is “significant acceleration of tubulin polymerization”. Further, the LDH release result in [4] (1.5 μM) was “substantial LDH release”.

On to `C[C@]12CC[C@H]3[C@@H](CCC4=CC(=O)CC[C@@H]43)[C@@H]1CC[C@H]2Cl` [Compound 3], for which the “effect on cell cycle phase distribution” value in test [1] (24 h) was “did not have any remarkable effect on cell cycle”; in test [1] (48 h), “substantially elevated increase of the subG1 population at the expense of G1 cells”. Also, the inhibition at 10 µM in [2] was 95.9 ± 0.3%; in test [5], under 20%; in test [6], 4.3 ± 3.7%; in [7], under 20%; in test [8], under 20%; in [9], under 20%. Further, the inhibition at 30 µM in test [2] was found to be 95.1 ± 0.5%; in test [5], 32.7 ± 1%; in [6], 8 ± 2.3%; in test [7], 36.9 ± 2%; in test [8], 21.8 ± 2.5%; in [9] it was 26 ± 2.3%. Moreover, the IC50 in [2] was 1210 nM. For the same compound, the “effect on tubulin polymerization” value in [3] is “significant acceleration of tubulin polymerization”. For the same compound, the LDH release entry in test [4] (3.0 or 5.0 μM) is “significant”.

As a reminder, the inhibition is the share of the control response that was lost under treatment. A word on the IC50: it is the concentration that inhibits the measured activity by half.
